This test concerns Tetranychus urticae (Two-Spotted Spider Mite). Description: Tetranychus urticae (two-spotted spider mite) feeding/contact activity on bean leaf discs. Format: in vivo. The conditions noted are these: foliar, 192 h, application rate of 200 ppm, sprayed bean leaf discs, mixed population (mobile stages), 8 days after infestation. As to the method:
Example B1: Tetranychus urticae (Two-Spotted Spider Mite)
Feeding/contact activity Bean leaf discs on agar in 24-well microtiter plates were sprayed with aqueous test solutions prepared from 10′000 ppm DMSO stock solutions. After drying the leaf discs were infested with a mite population of mixed ages. The samples were assessed for mortality on mixed population (mobile stages) 8 days after infestation.

As a reminder, the mortality is the share of the test organisms that died. A higher mortality goes with a strong lethal effect.

Bounds are passed on as bounds.

Consider `COCc1nc(OCc2cc(C(F)(F)F)ccc2F)c(C#N)cc1C(=O)N1CCC(c2noc(C)n2)CC1` [Compound P1.2, 2-[[2-fluoro-5-(trifluoromethyl)phenyl]methoxy]-6-(methoxymethyl)-5-[4-(5-methyl-1,2,4-oxadiazol-3-yl)piperidine-1-carbonyl]pyridine-3-carbonitrile], for which the mortality at 200 ppm is at least 80%.
